Test systems include CCRF-CEM leukemia; COLO 205 colon; HL-60(TB) leukemia; HT29 colon; IGROV1 ovarian; K-562 leukemia; MALME-3M melanoma; MDA-MB-231 breast; MDA-MB-435; MOLT-4 leukemia; NCI-H522 lung; OVCAR-4 ovarian; OVCAR-8 ovarian; SN12C renal; SNB-19 CNS; TK-10 renal; U251 CNS; UO-31 renal.
Assay in all cases: NCI anticancer screen, dose series, 48 h

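Test compounds were applied to cells in 96-well plates for 48 hours at 5 doses. TGI: concentration producing complete growth inhibition.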

Regarding `O=C(C(=O)N1CCc2ccccc21)c1c[nH]c2ccccc12`, the TGI with CCRF-CEM leukemia, in the assay with COLO 205 colon, in the assay on HL-60(TB) leukemia, with HT29 colon, in the assay on IGROV1 ovarian and with K-562 leukemia was over 10 µM in each case. Moreover, the TGI in the assay on MALME-3M melanoma, with MDA-MB-231 breast, in the assay with MDA-MB-435, in the assay with MOLT-4 leukemia, in the assay with NCI-H522 lung and in the assay on OVCAR-4 ovarian was over 10 µM each time. Besides, the TGI with OVCAR-8 ovarian, with SN12C renal, with SNB-19 CNS, with TK-10 renal, in the assay on U251 CNS and in the assay on UO-31 renal was over 10 µM throughout.
`CC1(C#N)CC(C)(C)C(/C=C2/CC(C)(C)C(/C=C3/OC(=N)CC3(C)C)=N2)=N1` (configuration not stated): the TGI is over 100 µM in the assay on CCRF-CEM leukemia; 34.4 µM with COLO 205 colon; 78.1 µM in the assay with HL-60(TB) leukemia; over 100 µM in the assay on HT29 colon; 46.3 µM in the assay on IGROV1 ovarian; 78.1 µM with K-562 leukemia. The TGI in the assay with MALME-3M melanoma is 20 µM; in the assay on MDA-MB-231 breast, over 100 µM; in the assay on MDA-MB-435 it was 63.9 µM; with MOLT-4 leukemia, 89.7 µM; with NCI-H522 lung, 34 µM; in the assay with OVCAR-4 ovarian, 43.7 µM. The TGI is 74 µM in the assay on OVCAR-8 ovarian; 95.9 µM with SN12C renal; over 100 µM in the assay with SNB-19 CNS; over 100 µM in the assay on TK-10 renal; over 100 µM in the assay with U251 CNS.
With `COc1ccc2c3c1O[C@H]1C(O)CCC4(O)[C@@H](C2)NCC[C@]314` (some centres not stated), the TGI in the assay with CCRF-CEM leukemia, in the assay with COLO 205 colon, in the assay with HL-60(TB) leukemia, in the assay with HT29 colon, in the assay with IGROV1 ovarian and with K-562 leukemia was over 100 µM throughout. Also, the TGI with MALME-3M melanoma, in the assay with MDA-MB-231 breast, in the assay on MDA-MB-435, in the assay with MOLT-4 leukemia, with NCI-H522 lung and in the assay with OVCAR-4 ovarian was over 100 µM throughout. Further, the TGI with OVCAR-8 ovarian, in the assay on SN12C renal, with SNB-19 CNS, with TK-10 renal, in the assay on U251 CNS and with UO-31 renal was over 100 µM throughout.
`COC(=O)C1=C(C)NC(C)=C(C(=O)OC)C1c1ccc(/[N+]([O-])=C/c2ccccc2)cc1`: the TGI was 48 µM in the assay with CCRF-CEM leukemia; 35.1 µM with COLO 205 colon; 63.2 µM with HL-60(TB) leukemia; over 100 µM in the assay on HT29 colon; over 100 µM in the assay with IGROV1 ovarian; over 100 µM in the assay with K-562 leukemia. The TGI in the assay with MALME-3M melanoma was 31.3 µM; in the assay on MDA-MB-231 breast, over 100 µM; in the assay on MDA-MB-435, over 100 µM; with MOLT-4 leukemia, 71.5 µM; with NCI-H522 lung, 27.9 µM; in the assay on OVCAR-4 ovarian it was 32.6 µM. The TGI with OVCAR-8 ovarian was 46.2 µM; in the assay on SN12C renal it was over 100 µM; with SNB-19 CNS, over 100 µM; in the assay with TK-10 renal it was over 100 µM; in the assay with U251 CNS it was over 100 µM; in the assay on UO-31 renal, over 100 µM.
For `C/C(=N\Nc1cc(CN2CCCC2)c(-c2ccc(Cl)cc2)nn1)C(=O)O`, the TGI with CCRF-CEM leukemia, in the assay with COLO 205 colon, with HL-60(TB) leukemia, with HT29 colon, in the assay on IGROV1 ovarian and in the assay on K-562 leukemia was over 100 µM each time. For the same compound, the TGI in the assay with MALME-3M melanoma, in the assay on MDA-MB-231 breast, with MDA-MB-435, in the assay with MOLT-4 leukemia, in the assay on NCI-H522 lung and with OVCAR-4 ovarian was over 100 µM each time. The TGI with OVCAR-8 ovarian, with SN12C renal, in the assay with SNB-19 CNS, in the assay with TK-10 renal, in the assay on U251 CNS and in the assay with UO-31 renal was over 100 µM each time.
With `O=C(NCCCNC(=O)c1ccc2c(O)c(O)ccc2c1)c1ccc2c(O)c(O)ccc2c1`, the TGI in the assay on CCRF-CEM leukemia was over 100 µM; in the assay with COLO 205 colon, 50.6 µM; in the assay with HL-60(TB) leukemia it was over 100 µM; with HT29 colon, over 64.8 µM; in the assay on IGROV1 ovarian it was 40.8 µM; with K-562 leukemia it was over 78.7 µM. The TGI in the assay on MALME-3M melanoma is over 100 µM; in the assay with MDA-MB-231 breast it was over 73.4 µM; with MDA-MB-435, 36.1 µM; in the assay with MOLT-4 leukemia it was 52.3 µM; with NCI-H522 lung, 48.5 µM; in the assay on OVCAR-4 ovarian, over 100 µM. Further, the TGI is 99.1 µM in the assay with OVCAR-8 ovarian; 52.2 µM in the assay with SN12C renal; over 70.9 µM with SNB-19 CNS; over 85.6 µM with TK-10 renal; 64.4 µM in the assay on U251 CNS; 65.7 µM in the assay on UO-31 renal.
For the compound `O=C(c1ccccc1)c1c(-c2ccccc2)[nH]n(-c2ccc([N+](=O)[O-])cc2)c(=O)c1=O`, the TGI in the assay on CCRF-CEM leukemia, in the assay with COLO 205 colon, in the assay on HL-60(TB) leukemia, in the assay on HT29 colon, in the assay on IGROV1 ovarian and in the assay on K-562 leukemia was over 100 µM each time. Further, the TGI with MALME-3M melanoma is over 100 µM; in the assay on MDA-MB-231 breast it was 98.9 µM; with MDA-MB-435, over 100 µM; in the assay with MOLT-4 leukemia, over 100 µM; in the assay on NCI-H522 lung, 73.7 µM; with OVCAR-4 ovarian it was over 100 µM. For the same compound, the TGI in the assay with OVCAR-8 ovarian, in the assay with SN12C renal, in the assay on SNB-19 CNS, in the assay on TK-10 renal, in the assay on U251 CNS and in the assay on UO-31 renal was over 100 µM each time.
Regarding `CCN(CC)c1ccc2cc(-c3nnc(-c4ccccc4)o3)c(=O)oc2c1`, the TGI with CCRF-CEM leukemia was over 100 µM; in the assay with COLO 205 colon, over 100 µM; with HL-60(TB) leukemia it was 70.6 µM; in the assay on HT29 colon, over 100 µM; with IGROV1 ovarian, over 80.8 µM; with K-562 leukemia, over 100 µM. Also, the TGI in the assay with MALME-3M melanoma was over 100 µM; in the assay on MDA-MB-231 breast, over 77.9 µM; in the assay on MDA-MB-435, over 100 µM; in the assay with NCI-H522 lung, over 100 µM; in the assay with OVCAR-4 ovarian, over 100 µM; in the assay with OVCAR-8 ovarian, 98.4 µM. The TGI in the assay on SN12C renal is over 100 µM; with SNB-19 CNS, over 80.9 µM; in the assay with TK-10 renal, over 62.6 µM; with U251 CNS, over 100 µM; in the assay with UO-31 renal, over 100 µM.

(Values after PubChem BioAssay (NCI).)
